Experiments:
OT1 CD8+ T-cells = assay: Flow cytometry of surface activation and memory markers on in vitro cultured OT1 CD8+ T-cells; type: cell-based, mouse; conditions: 5 μM inhibitor day 0-3, flow cytometry on day 3 and 7
Experimental: Example 2. In vitro culture of splenocytes comprising CD8+ T-cells. OT1 splenocytes (as described in Example 1) were cultured for 3 days at a concentration of 10^6 cells per mL in RPMI medium (Gibco 61870-01) supplemented with 10% FCS, (Gibco 10270-106), 1% Penicillin/Streptomycin (P/S; Gibco 15070-063), 0.1% 13-mercaptoethanol, 1% HEPES (Gibco 15630-080), 1× Non-essential amino acids (Gibco 11140-035), 1% L-glutamine (Gibco 25030-081), 1 mM Sodium Pyruvate (Gibco 11360-039), 100 U/m1 hIL-2 (Glaxo-IMB) and 1 μg/ml ovalbumin N4 peptide (SIINFEKL). To evaluate the effects of IDH2 inhibition on T-cell differentiation, 5 μM of a small molecule IDH2 inhibitor (AG221 or AGI6780) or a DMSO solvent control was added during this 3-day culture period. At day 3, a fraction of the splenocytes was collected and the remaining cells were cultured for 4 additional days with 100 U/ml hIL-2 and 10 ng/ml hIL-7 (Peprotech 200-07) supplementation after washing out the inhibitors and the ovalbumine N4 peptide (FIG. 1). At day 3 and day 7, the activation and differentiation state of CD8+ T-cells was determined by gene expression analysis, flow cytometry and extracellular metabolic flux analyses (see Example 3).
Cells were incubated in a live/dead stain (Fixable aqua dead cell stain kit, Invitrogen) followed by an incubation with different antibody panels.
Antibody panel to determine the differentiation and activation state of in vitro cultured T-cells (see Examples 2 and 4): anti-CD8-PE-texas-Red, anti-CD62L-FITC, anti-CD127-PE, anti-CD27-PerCP-Cy5.5, anti-CD71-PE-Cy7, anti-CD44-APC-Cy7, anti-CD98-APC, anti-CD25-Pacific blue (BD Pharmingen and eBioscience, San Diego, Calif., USA). All those antigens are surface molecules. Cells were gated on living single CD8+ cells before analysis of activation and memory marker expression. For the unstained control, cells were stained with the live/dead stain and anti-CD8-PE-texas-Red.
Cells were acquired on LSR-II flow cytometers from the flow cytometry facility of UNIL and data were analyzed with FlowJo™ 10 software. Antibodies were purchased from BD Phamingen (San Diego, Calif., USA), eBioscience (San Diego, Calif., USA, and Biolegend (San Diego, Calif., USA).

[1] = tested on: human CD8+ T-cells from umbilical cord blood; assay: CD62L flow cytometry of human cord blood mononuclear cells (CBMC); type: cell-based; conditions: day 11; AG221 5 μM, MK2206 1 μM; DMSO control about 35%
Experimental: (§1) Methods: Mononuclear Cells were isolated from fresh umbilical cord blood on a Percoll Gradient (CBMCs). 10^4 CBMC's were seeded per well in a round bottom 96-well plate in RPMI with 10% human serum, and activated with (magnetic) αCD3/CD28 at a 1:2 cell:bead ratio and 300 U/ml rhIL-2, in the presence of 5 μM AG221 or DMSO, or 1 μM MK2206 (AKT inhibitor). After 11 days of culture, CD62L expression was analyzed by flow cytometry on a fraction of the cells (FIG. 15A). The other cells were washed 2 times and placed in a magnet to remove the inhibitors and the αCD3/CD28 beads. The cells were then rested for 4 hours before restimulating them for 4 hours with 1 ng/ml Phorbol 12-Myristate 13-Acetate (PMA, a PKC activator) and 50 μg/ml Ionomycin (a Ca^2+ ionophore, activating NF-KB and NFAT) in the presence of 50 μ/ml golgi inhibitor (Brefeldin A, BFA), allowing for the measurement of intracellular accumulation of different cytokines by flow cytometry.

human CD8+ T-cells = assay: Cytokine expression after PMA and Ionomycin restimulation of human CBMC-derived T-cells; type: cell-based; conditions: day 11 cells, inhibitors washed out, PMA and ionomycin 4 hours
Experimental: as §1

SMILES | CD62L surface expression compared to DMSO (OT1 CD8+ T-cells) | other surface markers (CD25, CD44, CD71, CD98, CD27, CD127) compared to DMSO (OT1 CD8+ T-cells) | CD8+ cells expressing CD62L [1] | TNF expression upon restimulation (human CD8+ T-cells) | expression of effector cytokine IFNγ upon restimulation (human CD8+ T-cells) | production of IL-2 upon restimulation (human CD8+ T-cells)
O=C(Nc1cccc(C(F)(F)F)c1)Nc1cc(S(=O)(=O)NC2CC2)ccc1-c1ccsc1 [AGI6780, 1-[5-(cyclopropylsulfamoyl)-2-thiophen-3-ylphenyl]-3-[3-(trifluoromethyl)phenyl]urea] | increased | generally unchanged |  |  |  | 
NC1(c2ccc(-c3nc4ccn5c(=O)[nH]nc5c4cc3-c3ccccc3)cc2)CCC1 [MK2206] |  |  | about 75% | unaffected | detrimental | unaltered

Source: patent publication US20220325242A1, “IDH2 INHIBITION FOR PRODUCING T-CELLS AND B-CELLS WITH A MEMORY PHENOTYPE” (Universite de Lausanne, priority 2019, published 2022)
